Measured values reported in PubChem BioAssay (NCI).
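GI50 = concentration required for 50% inhibition of growth. TGI: concentration producing complete growth inhibition.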

Tests used:
Test in all cases: NCI tumour cell line growth inhibition, 384-well format
DU-145 prostate = tested on: DU-145 prostate
SK-OV-3 ovarian = tested on: SK-OV-3 ovarian
SF-295 CNS = tested on: SF-295 CNS
MDA-MB-435 melanoma = tested on: MDA-MB-435 melanoma
SN12C renal = tested on: SN12C renal
A549 NSCLC = tested on: A549 NSCLC
RXF 393 renal = tested on: RXF 393 renal
MDA-MB-468 breast = tested on: MDA-MB-468 breast
SNB-19 CNS = tested on: SNB-19 CNS
HCT-15 colon = tested on: HCT-15 colon
IGROV1 ovarian = tested on: IGROV1 ovarian
NCI-H226 lung = tested on: NCI-H226 lung
RPMI-8226 leukemia = tested on: RPMI-8226 leukemia
BT-549 breast = tested on: BT-549 breast
OVCAR-8 ovarian = tested on: OVCAR-8 ovarian
NCI-H23 lung = tested on: NCI-H23 lung
EKVX NSCLC = tested on: EKVX NSCLC
HT29 colon = tested on: HT29 colon
LOX IMVI melanoma = tested on: LOX IMVI melanoma
MALME-3M melanoma = tested on: MALME-3M melanoma
786-0 renal = tested on: 786-0 renal
T-47D breast = tested on: T-47D breast
SF-539 CNS = tested on: SF-539 CNS
K-562 leukemia = tested on: K-562 leukemia
OVCAR-4 ovarian = tested on: OVCAR-4 ovarian
MCF7 breast = tested on: MCF7 breast
M14 melanoma = tested on: M14 melanoma
UO-31 renal = tested on: UO-31 renal
SF-268 CNS = tested on: SF-268 CNS
HS 578T breast = tested on: HS 578T breast
NCI-H322M lung = tested on: NCI-H322M lung
SK-MEL-28 melanoma = tested on: SK-MEL-28 melanoma
SK-MEL-5 melanoma = tested on: SK-MEL-5 melanoma
MDA-MB-231 breast = tested on: MDA-MB-231 breast
U251 glioblastoma = tested on: U251 glioblastoma
HCT-116 colon = tested on: HCT-116 colon
HL-60(TB) leukemia = tested on: HL-60(TB) leukemia
UACC-62 melanoma = tested on: UACC-62 melanoma
MOLT-4 leukemia = tested on: MOLT-4 leukemia
HOP-92 NSCLC = tested on: HOP-92 NSCLC
HOP-62 NSCLC = tested on: HOP-62 NSCLC
TK-10 renal = tested on: TK-10 renal
OVCAR-3 ovarian = tested on: OVCAR-3 ovarian
NCI/ADR-RES ovarian = tested on: NCI/ADR-RES ovarian
A498 renal = tested on: A498 renal
NCI-H460 NSCLC = tested on: NCI-H460 NSCLC
CAKI-1 renal = tested on: CAKI-1 renal
SNB-75 CNS = tested on: SNB-75 CNS
SW-620 colon = tested on: SW-620 colon
NCI-H522 lung = tested on: NCI-H522 lung
UACC-257 melanoma = tested on: UACC-257 melanoma
PC-3 prostate = tested on: PC-3 prostate
KM12 colon = tested on: KM12 colon
COLO 205 colon = tested on: COLO 205 colon
CCRF-CEM leukemia = tested on: CCRF-CEM leukemia
ACHN renal = tested on: ACHN renal
HCC-2998 colon = tested on: HCC-2998 colon

CC1(C)OCCn2c1nc1c(N3CCOCC3)nc(-c3cnc(N)nc3)nc12
GI50 (DU-145 prostate): 527 nM
TGI (DU-145 prostate): 9150 nM
GI50 (SK-OV-3 ovarian): 199 nM
TGI (SK-OV-3 ovarian): 1200 nM
GI50 (SF-295 CNS): 316 nM
TGI (SF-295 CNS): 2020 nM
GI50 (MDA-MB-435 melanoma): 1230 nM
TGI (MDA-MB-435 melanoma): > 100000 nM
GI50 (SN12C renal): 389 nM
TGI (SN12C renal): 5490 nM
GI50 (A549 NSCLC): 477 nM
TGI (A549 NSCLC): 6090 nM
GI50 (RXF 393 renal): 758 nM
TGI (RXF 393 renal): 4420 nM
GI50 (MDA-MB-468 breast): 399 nM
TGI (MDA-MB-468 breast): 1780 nM
GI50 (SNB-19 CNS): 5610 nM
TGI (SNB-19 CNS): > 100000 nM
GI50 (HCT-15 colon): 432 nM
TGI (HCT-15 colon): > 100000 nM
GI50 (IGROV1 ovarian): 158 nM
TGI (IGROV1 ovarian): 659 nM
GI50 (NCI-H226 lung): 348 nM
TGI (NCI-H226 lung): 2900 nM
GI50 (RPMI-8226 leukemia): 193 nM
TGI (RPMI-8226 leukemia): 667 nM
GI50 (BT-549 breast): 799 nM
TGI (BT-549 breast): 5590 nM
GI50 (OVCAR-8 ovarian): 742 nM
TGI (OVCAR-8 ovarian): > 100000 nM
GI50 (NCI-H23 lung): 446 nM
TGI (NCI-H23 lung): > 100000 nM
GI50 (EKVX NSCLC): 519 nM
TGI (EKVX NSCLC): 4100 nM
GI50 (HT29 colon): 412 nM
TGI (HT29 colon): > 100000 nM
GI50 (LOX IMVI melanoma): 556 nM
TGI (LOX IMVI melanoma): 3440 nM
GI50 (MALME-3M melanoma): 161 nM
TGI (MALME-3M melanoma): 749 nM
GI50 ([…]-0 renal): 1280 nM
TGI (786-0 renal): 9930 nM
GI50 (T-47D breast): 128 nM
TGI (T-47D breast): 638 nM
GI50 (SF-539 CNS): 1040 nM
TGI (SF-539 CNS): > 100000 nM
GI50 (K-562 leukemia): 1950 nM
TGI (K-562 leukemia): > 100000 nM
GI50 (OVCAR-4 ovarian): 1040 nM
TGI (OVCAR-4 ovarian): 5790 nM
GI50 (MCF7 breast): 96.4 nM
TGI (MCF7 breast): > 100000 nM
GI50 (M14 melanoma): 494 nM
TGI (M14 melanoma): > 100000 nM
GI50 (UO-31 renal): 416 nM
TGI (UO-31 renal): > 100000 nM
GI50 (SF-268 CNS): 1070 nM
TGI (SF-268 CNS): > 100000 nM
GI50 (HS 578T breast): 275 nM
TGI (HS 578T breast): 1350 nM
GI50 (NCI-H322M lung): 458 nM
TGI (NCI-H322M lung): 8700 nM
GI50 (SK-MEL-28 melanoma): 418 nM
TGI (SK-MEL-28 melanoma): 5420 nM
GI50 (SK-MEL-5 melanoma): 519 nM
TGI (SK-MEL-5 melanoma): 2560 nM
GI50 (MDA-MB-231 breast): 584 nM
TGI (MDA-MB-231 breast): > 100000 nM
GI50 (U251 glioblastoma): 2250 nM
TGI (U251 glioblastoma): > 100000 nM
GI50 (HCT-116 colon): 545 nM
TGI (HCT-116 colon): > 100000 nM
GI50 (HL-60(TB) leukemia): 153 nM
TGI (HL-60(TB) leukemia): 1910 nM
GI50 (UACC-62 melanoma): 556 nM
TGI (UACC-62 melanoma): 2980 nM
GI50 (MOLT-4 leukemia): 218 nM
TGI (MOLT-4 leukemia): 1200 nM
GI50 (HOP-92 NSCLC): 385 nM
TGI (HOP-92 NSCLC): 2890 nM
GI50 (HOP-62 NSCLC): 771 nM
TGI (HOP-62 NSCLC): > 100000 nM
GI50 (TK-10 renal): 412 nM
TGI (TK-10 renal): 3680 nM
GI50 (OVCAR-3 ovarian): 513 nM
TGI (OVCAR-3 ovarian): 7280 nM
GI50 (NCI/ADR-RES ovarian): 1770 nM
TGI (NCI/ADR-RES ovarian): > 100000 nM
GI50 (A498 renal): 314 nM
TGI (A498 renal): 2200 nM
GI50 (NCI-H460 NSCLC): 199 nM
TGI (NCI-H460 NSCLC): > 100000 nM
GI50 (CAKI-1 renal): 279 nM
TGI (CAKI-1 renal): 2740 nM
GI50 (SNB-75 CNS): 232 nM
TGI (SNB-75 CNS): 2270 nM
GI50 (SW-620 colon): 1600 nM
TGI (SW-620 colon): > 100000 nM
GI50 (NCI-H522 lung): 368 nM
TGI (NCI-H522 lung): > 100000 nM
GI50 (UACC-257 melanoma): 1830 nM
TGI (UACC-257 melanoma): > 100000 nM
GI50 (PC-3 prostate): 306 nM
TGI (PC-3 prostate): 6920 nM
GI50 (KM12 colon): 834 nM
TGI (KM12 colon): > 100000 nM
GI50 (COLO 205 colon): 378 nM
TGI (COLO 205 colon): 9220 nM
GI50 (CCRF-CEM leukemia): 491 nM
TGI (CCRF-CEM leukemia): 7050 nM
GI50 (ACHN renal): 467 nM
TGI (ACHN renal): 6870 nM
GI50 (HCC-2998 colon): 885 nM
TGI (HCC-2998 colon): > 100000 nM
